Data as given in patent US20030100598A1, “Novel esters derived from (rr,ss)-2-hydroxybenzoate of 3-(2-dimethylaminomethyl-1-hydroxycyclohexyl)phenyl” (priority 1999, published 2003).

How the values were obtained:
Male Swiss mice [1] = assay: Hot plate method, analgesic activity in mice; type: in vivo; conditions: for % response time increase on hot plate: 20 μmol/kg, oral adm., n = 20-40; for % response time increase: hot plate, 15 mg/kg, intraperitoneal adm., n = 20
Protocol: The method that was used is described by Eddy N. B. and Leimbach D. (J. Pharm. Exp. Ther. 107: 385-393, 1953). The analgesic effect of the products was evaluated analysing the behaviour of the animals on a hot surface at 55° C.±1° C.
Male Swiss mice weighing 20-25 g were used. The compounds being tested were administered orally or intraperitoneally 1 hour ∘ 30 minutes before starting the test, respectively.
The process consisted of placing the animals on the plate and keeping them in a Plexiglas cylinder 25 cm high and 21 cm […]. The time the animals took to jump off the hot surface was determined. The animals were selected before starting the test so that those that took longer than 10 seconds to jump off were not included in the group that would receive treatment.
30 minutes after administering the product being tested, the test was repeated and the maximum time it took the animals to jump off was again recorded.
The results are expressed as the % of jump time increase calculated as follows: [formula]
In order to determine the duration of the analgesic effect of the orally administered products, the analgesic activity was evaluated on the hot plate 1, 3, 6, 8, and 24 hours after the administration of the product, as well as the control group which received treatment only with the vehicle. The base responses were evaluated at 30 and 5 minutes prior to administering the products.

Male Swiss mice [2] = assay: Determination of the DL50 (acute single dose oral toxicity); type: in vivo; conditions: oral adm., 14 days observation
Protocol: (EUDRA/S/87/011, Single Dose Toxicity, European Directive 75/318/EEC) (ICH S4, Toxicity Studies, single dose and repeated dose, CPMP vol III February 87, Single dose toxicity)
Male Swiss mice of the same batch weighing 20-25 g are used in order to estimate the acute toxicity of the products.
Prior to administering the products, the animals were forced to fast for 12 hours with no intake of food but free access to water. Several subgroups of 10 animals were randomly selected and orally given increasing doses of the products in single administration, after which they remained under observation for a period of 14 days with free access to water and food. Finally, the number of dead animals of each subgroup was quantified and the value of the DL50 was calculated (1-2).

SMILES | % response time increase on hot plate (Male Swiss mice [1]) | % response time increase (Male Swiss mice [1]) | DL50 approx. (Male Swiss mice [2])
COc1cccc(C2(O)CCCCC2CN(C)C)c1 (single isomer, unassigned) [Tramadol, (1R, 2R or 1S, 2S)-2-[(dimethylamino)methyl]-1-(3-methoxyphenyl) cyclohexano, reference compound] | 87 ± 23% | 218 ± 98% | ~350 mg/kg
CC(C)Cc1ccc(C(C)C(=O)Oc2cccc(C3(O)CCCCC3CN(C)C)c2)cc1 (stereo not drawn) [EXAMPLE 1, 3-(2-dimethylaminomethyl-1-hydroxy-cyclohexyl)-phenyl 2-(4-isobutyl-phenyl)-propionate] | 210 ± 88% | 568 ± 100% | ~900 mg/kg
COc1ccc2cc(C(C)C(=O)Oc3cccc(C4(O)CCCCC4CN(C)C)c3)ccc2c1 (stereo not drawn) [EXAMPLE 2, 3-(2-dim-ethylaminomethyl-1-hydroxy-cyclohexyl)-phenyl 2-(6-methoxy-naphthalen-2-yl)-propionate] |  | 539 ± 50% | 
CN(C)CC1CCCCC1(O)c1cccc(OC(=O)C2CCn3c(C(=O)c4ccccc4)ccc32)c1 (stereo not drawn) [EXAMPLE 3, 3-(2-dimethylaminomethyl-1-hydroxy-cyclohexyl)-phenyl 5-benzoyl-2,3-dihydro-1H-pyrrolizine-1-carboxylate] |  | 416 ± 146% | 
CC(C)Cc1ccc(C(C)C(=O)Oc2cccc(C3=C(CN(C)C)CCCC3)c2)cc1 (stereo not drawn) [EXAMPLE 4, 3-(2-dimethylaminomethyl-cyclohex-1-enyl)-phenyl 2-(4-isobutyl-phenyl)-propionate] |  | 333 ± 134% | 
COc1ccc2cc(C(C)C(=O)Oc3cccc(C4=C(CN(C)C)CCCC4)c3)ccc2c1 (stereo not drawn) [EXAMPLE 5, 3-(2-dimethylaminomethyl-cyclohex-1-enyl)-phenyl 2-(6-methoxy-naphthalen-2-yl)-propionate] |  | 356 ± 151% | 
CN(C)CC1CCCCC1(O)c1cccc(OC(=O)c2ccccc2O)c1 (stereo not drawn) [EXAMPLE 6, 3-(2-dimethylaminomethyl-1-hydroxy-cyclohexyl)-phenyl (RR-SS)-2-hydroxybenzoate] | 248 ± 72% | 546 ± 63% | ~550 mg/kg
CN(C)CC1=C(c2cccc(OC(=O)c3ccccc3O)c2)CCCC1 [EXAMPLE 7, 3-(2-dimethylaminomethyl-cyclohex-1-enyl)-phenyl 2-hydroxybenzoate] |  | 634 ± 42% | 
CN(C)CC1CCCCC1(O)c1cccc(OC(=O)c2ccccc2OC(=O)N(C)C)c1 (stereo not drawn) [EXAMPLE 8, 3-(2-dimethylaminomethyl-1-hydroxy-cyclohexyl)-phenyl (RR—SS)-2-dimethylcarbamoyloxy-benzoate] |  | 327 ± 65% | 
